Counter-ions that a name gives are not always drawn. Like-named read-outs stand apart in the source and are kept apart here.
Legend:
[1] = system: HOX-high AML patient cells; test: Primary chemical screen of 60 compounds, cell dose-response viability assay (CellTiterGlo, 6 days); format: cell-based, human; conditions: for EC50: read-out: MEAN EC50 HOX-high
Protocol: (§1) frozen AML mono-nucleated cells were thawed at 37° C. in Iscove's modified Dulbecco's medium (IMDM) containing 20% FBS and DNase I (100 μg/mL).
(§2) All powders were dissolved in DMSO and diluted in culture medium immediately before use. Final DMSO concentration in all conditions was 0.1%. The 60 compounds were purchased from various suppliers including Santa Cruz, Selleckchem, Calbiochem, AdooQ Bioscience, Cayman chemical and Synkinase.
(§3) Patient cells were seeded in 384-well plates at a density of 5,000 cells in 50 μL per well. In the initial screen, compounds were added to seeded cells in serial dilutions (10 dilutions, 1:3, starting from 10 μM or 20 μM), in duplicates. Cells treated with 0.1% DMSO without additional compound were used as negative controls. Viable cell counts per well were evaluated after 6 days of culture using the CellTiterGlo® assay (Promega®) according to the manufacturer's instruction.
(§4) Using high expression of HOXA9 and HOXA10 as a surrogate for the detection of HOX-network-high patient samples, the survival of HOX-high versus HOX-med/low specimens contacted with 60 inhibitors targeting receptor tyrosine kinases (RTK), members of the RAS and PI3K pathways, was assessed (FIG. 2A, Table 4).

[2] = system: HOX-med/low AML patient cells; test: as above; format: cell-based, human; conditions: read-out: MEAN EC50 HOX-med/low
Protocol: as §1, §2, §3, §4

[3] = Homo sapiens, 144 h, primary screen, mean over HOX-high patient specimens, 6 days culture, top concentration 10 μM or 20 μM
[4] = ratio of mean EC50 HOX-high to mean EC50 HOX-med/low
[5] = Homo sapiens, 144 h, primary screen, mean over HOX-med/low patient specimens, 6 days culture, top concentration 10 μM or 20 μM
[6] = primary screen, mean over HOX-high patient specimens, 6 days culture, top concentration 10 μM or 20 μM
[7] = primary screen, mean over HOX-med/low patient specimens, 6 days culture, top concentration 10 μM or 20 μM

SMILES: Cc1nc(Nc2ncc(C(=O)Nc3c(C)cccc3Cl)s2)cc(N2CCN(CCO)CC2)n1 [Dasatinib]
- EC50 [1, 3]: 774 nM
- FOLD CHANGE High/Med-low [1, 4]: 2.4
- EC50 [2, 5]: 322 nM

SMILES: CS(=O)(=O)N1CCN(Cc2cc3nc(-c4cccc5[nH]ncc45)nc(N4CCOCC4)c3s2)CC1 [GDC0941]
- EC50 [1, 3]: 1110 nM
- FOLD CHANGE High/Med-low [1, 4]: 1.8
- EC50 [2, 5]: 603 nM

SMILES: Cc1ccc(NC(=O)c2cccc(N(C)C)c2)cc1NC(=O)c1ccc(O)cc1 [ZM336372]
- EC50 [1, 6]: > 10000 nM
- FOLD CHANGE High/Med-low [1, 4]: 1.1
- EC50 [2, 7]: 8880 nM

SMILES: COc1cccc(-c2cc(=O)c3ccccc3o2)c1N [PD98059]
- FOLD CHANGE High/Med-low [1, 4]: 1.0
- EC50 [2, 7]: > 10000 nM

SMILES: CN1CCC(c2[nH]nc(-c3ccc(Cl)cc3)c2-c2ccncn2)CC1 [p38 MAP Kinase Inhibitor V]
- EC50 [1, 6]: 7310 nM
- FOLD CHANGE High/Med-low [1, 4]: 0.8
- EC50 [2, 7]: 8790 nM

SMILES: COc1ccc(Cl)c(Nc2nc3ccccc3nc2NS(=O)(=O)c2cccc(NC(=O)C(C)(C)N)c2)c1 [SAR245408 XL147]
- EC50 [1, 3]: > 10000 nM
- EC50 [2, 5]: > 10000 nM

SMILES: c1cc(CN2CCCNCCNCCCNCC2)ccc1CN1CCCNCCNCCCNCC1 [AMD3100]
- EC50 [1, 3]: 9590 nM
- FOLD CHANGE High/Med-low [1, 4]: 1.0
- EC50 [2, 5]: > 10000 nM

SMILES: NC(=O)N1CCC(CC(=O)N2CCC([C@H]3c4ncc(Br)cc4CCc4cc(Cl)cc(Br)c43)CC2)CC1 [Lonafarnib]
- EC50 [1, 3]: 2490 nM
- FOLD CHANGE High/Med-low [1, 4]: 0.7
- EC50 [2, 5]: 3670 nM

SMILES: Cc1[nH]c(/C=C2\C(=O)Nc3cc(-c4ccccc4)ccc32)c(C)c1CCC(=O)O [PDGFR Tyrosine Kinase Inhibitor VII]
- EC50 [1, 6]: 6000 nM
- FOLD CHANGE High/Med-low [1, 4]: 2.1
- EC50 [2, 7]: 2840 nM

SMILES: COc1cccc2cc(-c3nc([C@H]4CC[C@H](C(=O)O)CC4)n4ncnc(N)c34)[nH]c12 [OSI027, (1r,4r)-4-(4-amino-5-(7-methoxy-1H-indol-2-yl)imidazo[1,5-f][1,2,4]triazin-7-yl)cyclohexanecarboxylic acid]
- EC50 [1, 3]: 2030 nM
- FOLD CHANGE High/Med-low [1, 4]: 3.1
- EC50 [2, 5]: 666 nM

SMILES: NC(=O)c1ccc(N(C(N)=O)c2c(F)cccc2F)nc1-c1ccc(F)cc1F [VX702]
- EC50 [1, 3]: 9550 nM
- FOLD CHANGE High/Med-low [1, 4]: 1.0
- EC50 [2, 5]: > 10000 nM

SMILES: Cn1cncc1[C@@](N)(c1ccc(Cl)cc1)c1ccc2c(c1)c(-c1cccc(Cl)c1)cc(=O)n2C [Tipifarnib]
- EC50 [1, 3]: 109 nM
- FOLD CHANGE High/Med-low [1, 4]: 0.7
- EC50 [2, 5]: 158 nM

SMILES: Nc1nc(Nc2ccc3c(c2)CCC(N2CCCC2)CC3)nn1-c1cc2c(nn1)-c1ccccc1CCC2 (stereo not shown) [R428]
- EC50 [1, 6]: 487 nM
- FOLD CHANGE High/Med-low [1, 4]: 0.8
- EC50 [2, 7]: 592 nM

SMILES: N#CC(=C(/N)Sc1ccccc1N)/C(C#N)=C(\N)Sc1ccccc1N [U0126]
- FOLD CHANGE High/Med-low [1]: 1.1
- EC50 ([1]; Homo sapiens, 144 h): 4480 nM
- EC50 ([2]; Homo sapiens, 144 h): 4110 nM

SMILES: Nc1cccc2c1CN(C1CCC(=O)NC1=O)C2=O (stereo not shown) [Lenalidomide]
- EC50 [1, 3]: 7310 nM
- FOLD CHANGE High/Med-low [1, 4]: 0.7
- EC50 [2, 5]: 9910 nM

SMILES: Nc1ncnc2c1c(-c1cccc(OCc3ccccc3)c1)cn2C1CC(CN2CCC2)C1 (stereo not shown) [NVPAEW541]
- EC50 [1, 6]: 1730 nM
- FOLD CHANGE High/Med-low [1, 4]: 1.0
- EC50 [2, 7]: 1770 nM

SMILES: CNC(=O)c1cc(Oc2ccc(NC(=O)Nc3ccc(Cl)c(C(F)(F)F)c3)cc2)ccn1 [Sorafenib Tosylate]
- FOLD CHANGE High/Med-low [1]: 1.2
- EC50 [1, 3]: 1100 nM
- EC50 [2, 5]: 936 nM

SMILES: COc1ccc2cc(-c3nc(-c4ccc([S+](C)[O-])cc4)[nH]c3-c3ccncc3)ccc2c1 (stereo not shown) [Tie2 Kinase Inhibitor]
- EC50 [1, 6]: > 10000 nM
- FOLD CHANGE High/Med-low [1, 4]: 1.0
- EC50 [2, 7]: > 10000 nM

SMILES: O=c1cc(N2CCNCC2)oc2c(-c3ccccc3)cccc12 [LY303511]
- EC50 [1, 3]: > 10000 nM
- EC50 [2, 5]: > 10000 nM

SMILES: CO[C@H]1C[C@@H]2CC[C@@H](C)[C@@](O)(O2)C(=O)C(=O)N2CCCC[C@H]2C(=O)O[C@H]([C@H](C)C[C@@H]2CC[C@@H](O)[C@H](OC)C2)CC(=O)[C@H](C)/C=C(\C)[C@@H](O)[C@@H](OC)C(=O)[C@H](C)C[C@H](C)/C=C/C=C/C=C/1C [Rapamycin]
- EC50 [1, 3]: 1890 nM
- FOLD CHANGE High/Med-low [1, 4]: 2.0
- EC50 [2, 5]: 951 nM

SMILES: COc1cc2ncnc(Nc3ccc(F)c(Cl)c3)c2cc1OCCCN1CCOCC1 [Gefitinib]
- FOLD CHANGE High/Med-low [1, 4]: 0.9

Reference: patent US20200188361A1, “USE OF MITOCHONDRIAL ACTIVITY INHIBITORS FOR THE TREATMENT OF POOR PROGNOSIS ACUTE MYELOID LEUKEMIA” (UNIVERSITE DE MONTREAL, priority 2016, published 2020)
